The text below walks through data of US20220402932A1, “Compounds Constituting C20-Modified Salinomycin Derivatives, a Method for Obtaining the Same, a Composition Containing the Same, a Use of Said Compounds and a Method for Obtaining an Intermediate Product” (FILECLO SP. Z O.O., priority 2020, published 2022).

Data set [1] has as its system advanced head, neck, breast and ovarian cancer. Conditions: small group of patients with advanced head; cited from earlier work.
Data set [2] relates to cancer cell lines B16-F0, Hs294T, LoVo, LoVo/DX, MCF-7, MV-4-11. The data set is described as follows: In vitro cytotoxicity tests (SRB / MTT) on cancer cell lines. The class given is cell-based, human and murine. Conditions: versus salinomycin; from Table 3 IC50 data; 72 hours incubation. The protocol: (§1) The solvent for further dilutions was a culture medium.
(§2) The experiments were repeated at least 3 times.
(§3) After 4 hours of incubation at 37° C., 80 μL of lysis buffer was added to each well.

For data set [3], the system named is MV-4-11 (human biphenotypic leukaemia). The data set can be described thus: In vitro cytotoxicity test, MTT assay, MV-4-11. The class given is cell-based. Conditions: 72 hours incubation. As to the method:
as §1, §2, §3
On the technique in general: Formazan colour is commonly taken as a measure of viable cells.

Each structure is given as a SMILES string.

For the compound `CC[C@@H](C(=O)[C@@H](C)[C@@H](O)[C@H](C)[C@@H]1O[C@@H]([C@@H](CC)C(=O)O)CC[C@@H]1C)[C@H]1O[C@]2(C=C[C@@H](O)[C@]3(CC[C@@](C)([C@H]4CC[C@](O)(CC)[C@H](C)O4)O3)O2)[C@H](C)C[C@@H]1C` [Salinomycin], in data set [1], the “effect on cancer progression” value is given as “inhibition of cancer progression” and the side effects result is reported as “no acute side effects”.

On to `CC[C@@H](C(=O)[C@@H](C)[C@@H](O)[C@H](C)[C@@H]1O[C@@H]([C@@H](CC)C(=O)O)CC[C@@H]1C)[C@H]1O[C@]2(C=C[C@@H](NC(=O)C(C)C)[C@]3(CC[C@@](C)([C@H]4CC[C@](O)(CC)[C@H](C)O4)O3)O2)[C@H](C)C[C@@H]1C` [formula (10), C20-dehydroxy-C20-aminosalinomycin N-isobutyramide], for which the “anti-proliferative effect compared to the parent compound” value in data set [2] is “several times more potent”.

As for `CC[C@@H](C(=O)[C@@H](C)[C@@H](O)[C@H](C)[C@@H]1O[C@@H]([C@@H](CC)C(=O)O)CC[C@@H]1C)[C@H]1O[C@]2(C=C[C@@H](NC(=O)c3ccccc3)[C@]3(CC[C@@](C)([C@H]4CC[C@](O)(CC)[C@H](C)O4)O3)O2)[C@H](C)C[C@@H]1C` [formula (15), C20-dehydroxy-C20-aminosalinomycin N-benzamide], the “anti-proliferative effect compared to the parent compound” value in data set [2] is given as “several times more potent”.

Consider `C#CCOC(=O)N[C@@H]1C=C[C@]2(O[C@H]([C@@H](CC)C(=O)[C@@H](C)[C@@H](O)[C@H](C)[C@@H]3O[C@@H]([C@@H](CC)C(=O)O)CC[C@@H]3C)[C@@H](C)C[C@H]2C)O[C@@]12CC[C@@](C)([C@H]1CC[C@](O)(CC)[C@H](C)O1)O2` [formula (22), C20-dehydroxy-C20-aminosalinomycin N-propargylcarbamate], for which the “anti-proliferative effect compared to the parent compound” value in data set [2] is recorded as “tens of times more potent”.

For `CC[C@@H](C(=O)[C@@H](C)[C@@H](O)[C@H](C)[C@@H]1O[C@@H]([C@@H](CC)C(=O)[O-])CC[C@@H]1C)[C@H]1O[C@]2(C=C[C@@H](NC(=O)NCCCCl)[C@]3(CC[C@@](C)([C@H]4CC[C@](O)(CC)[C@H](C)O4)O3)O2)[C@H](C)C[C@@H]1C.[Na+]` [formula (25), 3-chloropropylurea of C20-dehydroxy-C20-aminosalinomycin], in data set [2], the “anti-proliferative effect compared to the parent compound” value was “tens of times more potent”. Moreover, the “effect against biphenotypic leukaemia cells” value in data set [3] is recorded as “preferred effect”.
